Source: ChEMBL document CHEMBL1201862, “PubChem BioAssay data set” (2004)
Calls of active or inactive are those of the source.

How the values were obtained:
[1] = target: Ras and Rab interactor 1/Tyrosine-protein kinase ABL1 (Homo sapiens, UniProt P00519+Q13671); assay type: functional;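 also: biochemical TR-FRET dose-response test measuring inhibition of binding between Rin1 and Abl proteins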
[2] = target: T1, Small ubiquitin-related modifier 1 (Homo sapiens, UniProt P63165); assay: SUMO1 protein-protein binding blockers, potency – biochemical, FRET, dose response (AID 624383); assay type: functional; conditions: read-out: IC50_Mean
[3] = target: T1, Small ubiquitin-related modifier 1; assay: SUMO1 protein interaction blockers, potency – biochemical, fluorescence polarization, uHTS hits, dose response (AID 624382); assay type: functional; conditions: read-out: IC50_Mean
Galanin receptor type 3 = Galanin receptor type 3 (Homo sapiens, UniProt O60755); assay: Fluorescence-based cell-based primary high throughput dose response assay to identify antagonists of the Galanin Receptor 3 (GalR3).; assay type: functional
cells [4] = assay type: functional, cell-based; conditions: HEK-CNG
[5] = target: Hepatocyte nuclear factor 4-alpha (Homo sapiens, UniProt P41235); assay type: functional, cell-based;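 also: biochemical luminescence-based dose-response counterscreen measuring inhibition of HNF4 dimerization, run alongside a screen for blockers of ABHD5–perilipin-5 interaction; split luciferase complementation of HNF4 fusion proteins in cell lysate measuring dimerization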
Paired box protein Pax-8 = Paired box protein Pax-8 (Homo sapiens, UniProt Q06710); assay: PAX8 transcriptional activity inhibition in RMG-I – RMG-I cells, luciferase, cherry-pick, dose response (AID 687027); assay type: functional, cell-based;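 also: luciferase reporter driven by Pax8 target thyroperoxidase promoter measured by SteadyGlo luminescence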
[6] = OVCAR8 cell viability loss – plate reader, dry powder samples, PAX8 project, dose response (AID 743197); assay type: functional, cell-based; conditions: OVCAR-8
[7] = toxicity toward immortalized ovarian surface epithelium – cell-based, plate reader, dry powder samples, cytotoxicity control for PAX8 inhibitor project, dose response (AID 743045); assay type: functional
[8] = OVCAR-3 cell viability loss – plate reader, dry powder samples, PAX8 inhibitor project, dose response (AID 743044); assay type: functional, cell-based
[9] = A2780 cell killing – plate reader, dry powder samples, cytotoxicity control, dose response (AID 743046); assay type: functional, cell-based
[10] = IGROV1 cell killing – plate reader, dry powder samples, PAX8 inhibitor project, dose response (AID 743043); assay type: functional, cell-based; conditions: IGROV-1
[11] = target: T2, Replicative DNA helicase DnaB (Mycobacterium tuberculosis, UniProt P9WMR3); assay: DnaB intein splicing inhibitors, dose response, biochemical, cell-free fluorescence (AID 449749); assay type: functional
T2 sequence (P9WMR3 whole entry): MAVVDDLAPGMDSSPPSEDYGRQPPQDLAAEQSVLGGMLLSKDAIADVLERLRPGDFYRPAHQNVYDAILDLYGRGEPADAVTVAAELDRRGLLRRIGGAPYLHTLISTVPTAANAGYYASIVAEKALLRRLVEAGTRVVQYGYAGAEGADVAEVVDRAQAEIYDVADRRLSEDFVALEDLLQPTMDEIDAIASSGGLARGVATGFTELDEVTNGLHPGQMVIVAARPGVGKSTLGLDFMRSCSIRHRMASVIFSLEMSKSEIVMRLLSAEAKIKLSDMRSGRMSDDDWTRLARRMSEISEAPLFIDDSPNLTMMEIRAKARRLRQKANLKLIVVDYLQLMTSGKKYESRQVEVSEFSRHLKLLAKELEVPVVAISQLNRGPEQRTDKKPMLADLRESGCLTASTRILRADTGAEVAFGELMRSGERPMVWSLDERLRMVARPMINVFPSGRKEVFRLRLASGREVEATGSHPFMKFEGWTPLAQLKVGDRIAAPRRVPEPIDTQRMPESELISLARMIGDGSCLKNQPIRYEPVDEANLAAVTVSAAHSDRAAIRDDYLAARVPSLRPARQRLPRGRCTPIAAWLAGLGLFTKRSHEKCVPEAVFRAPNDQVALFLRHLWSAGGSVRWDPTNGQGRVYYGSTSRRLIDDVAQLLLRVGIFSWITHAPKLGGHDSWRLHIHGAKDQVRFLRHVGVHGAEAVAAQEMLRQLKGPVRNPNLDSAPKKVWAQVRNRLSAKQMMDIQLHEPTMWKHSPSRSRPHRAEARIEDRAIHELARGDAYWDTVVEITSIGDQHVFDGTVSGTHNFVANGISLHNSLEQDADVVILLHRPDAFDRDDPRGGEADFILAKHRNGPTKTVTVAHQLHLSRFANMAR

Protein RecA = target: T3, Protein RecA (Mycobacterium tuberculosis, UniProt P9WHJ3); assay: Fluorescence Cell-Free Homogeneous Dose Retest to Identify Inhibitors of RecA-Intein Splicing Activity. [Related pubchem assays (depositor defined):AID2097, AID2223, AID489010, AID492950]; assay type: functional
T3 sequence (P9WHJ3 whole entry): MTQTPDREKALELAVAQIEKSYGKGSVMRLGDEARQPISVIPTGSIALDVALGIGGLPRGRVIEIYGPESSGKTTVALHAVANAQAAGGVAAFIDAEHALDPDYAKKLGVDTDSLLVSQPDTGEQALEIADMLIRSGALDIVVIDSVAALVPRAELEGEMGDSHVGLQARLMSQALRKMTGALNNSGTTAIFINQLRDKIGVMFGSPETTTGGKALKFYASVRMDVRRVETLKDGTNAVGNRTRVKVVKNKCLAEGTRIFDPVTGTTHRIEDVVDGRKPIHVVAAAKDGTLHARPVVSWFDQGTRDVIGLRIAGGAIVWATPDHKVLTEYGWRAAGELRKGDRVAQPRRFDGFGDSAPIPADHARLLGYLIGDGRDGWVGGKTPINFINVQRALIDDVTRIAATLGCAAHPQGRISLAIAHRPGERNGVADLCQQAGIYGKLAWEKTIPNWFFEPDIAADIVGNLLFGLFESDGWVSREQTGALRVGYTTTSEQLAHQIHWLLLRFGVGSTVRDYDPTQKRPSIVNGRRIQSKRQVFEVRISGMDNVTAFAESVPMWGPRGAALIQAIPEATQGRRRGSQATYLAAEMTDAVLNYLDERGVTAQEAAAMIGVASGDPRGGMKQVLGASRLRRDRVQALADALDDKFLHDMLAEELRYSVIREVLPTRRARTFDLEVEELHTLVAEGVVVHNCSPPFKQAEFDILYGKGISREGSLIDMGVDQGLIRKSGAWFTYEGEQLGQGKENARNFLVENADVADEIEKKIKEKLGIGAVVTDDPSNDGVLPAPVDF

[12] = HGIII-sPLA2 enzyme inhibition potency – biochemical, QFRET, IC50, dose response (AID 743457);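 also: green fluorescence rise as the enzyme cleaves BODIPY PC-A2 in liposomes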
[13] = Late stage assay provider results from the probe development effort to identify selective inhibitors of heat shock protein 90 (HSP90): Absorbance-based cell proliferation assay in SKBR3 cells.; assay type: functional; conditions: SK-BR-3
[14] = Late stage assay provider results from the probe development effort to identify selective inhibitors of heat shock protein 90 (HSP90): Absorbance-based cell proliferation assay in MCF7 cells.; assay type: functional
[15] = target: DNA dC->dU-editing enzyme APOBEC-3G (Homo sapiens, UniProt Q9HC16); assay: Dose Response confirmation of small molecule APOBEC3G DNA Deaminase Inhibitors via a fluorescence-based single-stranded DNA deaminase assay. [Related pubchem assays (depositor defined):AID493012, AID493028]; assay type: functional
[16] = target: DNA dC->dU-editing enzyme APOBEC-3A (Homo sapiens, UniProt P31941); assay: A3A deaminase inhibition for selectivity – biochemical, dose response (AID 504722); assay type: functional
cells [17] = assay type: functional, cell-based
[18] = target: T4, Nuclear receptor subfamily 0 group B member 1 (Homo sapiens, UniProt P51843); assay type: functional, cell-based;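 also: HEK293T cells transfected with SF-1 and DAX-1 plus StAR promoter luciferase reporter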
T4 sequence (P51843 whole entry): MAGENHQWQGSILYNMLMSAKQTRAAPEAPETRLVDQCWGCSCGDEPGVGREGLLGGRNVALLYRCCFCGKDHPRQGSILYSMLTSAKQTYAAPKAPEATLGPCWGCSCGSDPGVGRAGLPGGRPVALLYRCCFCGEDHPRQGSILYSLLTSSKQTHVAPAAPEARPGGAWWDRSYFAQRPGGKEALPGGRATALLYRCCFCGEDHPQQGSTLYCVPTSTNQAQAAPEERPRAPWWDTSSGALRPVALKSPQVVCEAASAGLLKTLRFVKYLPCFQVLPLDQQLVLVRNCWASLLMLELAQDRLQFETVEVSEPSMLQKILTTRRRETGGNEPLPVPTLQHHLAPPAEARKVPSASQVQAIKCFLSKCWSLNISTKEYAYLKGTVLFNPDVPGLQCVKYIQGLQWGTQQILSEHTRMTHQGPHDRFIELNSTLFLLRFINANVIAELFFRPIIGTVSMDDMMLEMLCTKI

cells [19] = assay type: functional
[20] = THP-1 cell cytotoxicity, dose response, cytotoxicity control for non-replicating M. tuberculosis project (AID 489025); assay type: functional
[21] = target: T5, Corticotropin-releasing factor receptor 2/Corticotropin-releasing factor-binding protein (Homo sapiens, UniProt P24387+Q13324); assay: activators of CRF receptor 2 with binding protein – uHTS hits, confirmation (AID 602473); assay type: functional; conditions: read-out: EC50_Mean
T5 sequence (Q13324 whole entry): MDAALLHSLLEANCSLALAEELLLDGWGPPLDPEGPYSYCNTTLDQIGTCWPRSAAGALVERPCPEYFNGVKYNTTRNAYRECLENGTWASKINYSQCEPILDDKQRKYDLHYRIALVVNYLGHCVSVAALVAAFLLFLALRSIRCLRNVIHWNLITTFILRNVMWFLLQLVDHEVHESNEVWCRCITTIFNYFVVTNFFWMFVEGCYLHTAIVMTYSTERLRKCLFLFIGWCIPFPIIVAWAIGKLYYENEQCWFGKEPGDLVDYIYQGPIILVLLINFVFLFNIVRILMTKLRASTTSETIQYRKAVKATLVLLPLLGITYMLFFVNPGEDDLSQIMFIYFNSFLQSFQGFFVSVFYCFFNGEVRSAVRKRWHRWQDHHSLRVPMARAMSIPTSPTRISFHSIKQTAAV
T5 sequence (P24387 whole entry): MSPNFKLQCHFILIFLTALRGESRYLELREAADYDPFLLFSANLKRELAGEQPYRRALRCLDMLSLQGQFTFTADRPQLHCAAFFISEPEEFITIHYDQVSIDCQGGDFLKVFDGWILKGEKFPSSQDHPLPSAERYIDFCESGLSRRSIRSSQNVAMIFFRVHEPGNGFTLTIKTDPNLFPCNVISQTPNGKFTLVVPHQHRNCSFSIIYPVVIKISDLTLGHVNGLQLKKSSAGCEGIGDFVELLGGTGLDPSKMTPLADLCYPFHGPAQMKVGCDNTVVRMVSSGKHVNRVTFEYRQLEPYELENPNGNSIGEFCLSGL

[22] = cAMP pathway inhibition in counterscreen cell line – TR-FRET cAMP detection, counter-screen for MC4R biased antagonist project, dose response (AID 602305); assay type: functional, cell-based;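 also: U2OS cells stimulated with forskolin near its EC80 as the cAMP inducer; potency is for inhibition of forskolin-stimulated cAMP signaling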
[23] = blockers of CRF-binding protein–CRF-R2 complex – cell-based, uHTS hits, 384-well, dose response (AID 651639); assay type: functional, Homo sapiens; conditions: read-out: IC50_Mean
[24] = target: T5, Corticotropin-releasing factor receptor 2/Corticotropin-releasing factor-binding protein; assay: Dose Response confirmation of uHTS hits for small molecule antagonists of the CRF-binding protein and CRF-R2 receptor complex.; assay type: functional; conditions: read-out: IC50_Mean
Melanocortin receptor 4 = Melanocortin receptor 4 (Homo sapiens, UniProt P32245); assay: inhibitors of MC4R cAMP signaling – cell-based, TR-FRET, biased antagonists, dose response (AID 602298); assay type: functional;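 also: antagonist potency against agonist-stimulated cAMP production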
Melanocortin receptor 4, sequence (P32245 whole entry): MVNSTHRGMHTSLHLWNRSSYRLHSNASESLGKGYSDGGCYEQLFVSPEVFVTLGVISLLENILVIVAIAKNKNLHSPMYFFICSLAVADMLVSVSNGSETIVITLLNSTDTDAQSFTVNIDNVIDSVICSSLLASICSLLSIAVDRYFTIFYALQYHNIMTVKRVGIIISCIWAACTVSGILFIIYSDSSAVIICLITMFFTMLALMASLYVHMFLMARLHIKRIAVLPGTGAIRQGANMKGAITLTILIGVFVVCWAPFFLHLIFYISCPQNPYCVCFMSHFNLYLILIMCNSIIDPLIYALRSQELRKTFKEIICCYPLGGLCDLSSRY

Galanin receptor type 3, sequence (O60755 whole entry): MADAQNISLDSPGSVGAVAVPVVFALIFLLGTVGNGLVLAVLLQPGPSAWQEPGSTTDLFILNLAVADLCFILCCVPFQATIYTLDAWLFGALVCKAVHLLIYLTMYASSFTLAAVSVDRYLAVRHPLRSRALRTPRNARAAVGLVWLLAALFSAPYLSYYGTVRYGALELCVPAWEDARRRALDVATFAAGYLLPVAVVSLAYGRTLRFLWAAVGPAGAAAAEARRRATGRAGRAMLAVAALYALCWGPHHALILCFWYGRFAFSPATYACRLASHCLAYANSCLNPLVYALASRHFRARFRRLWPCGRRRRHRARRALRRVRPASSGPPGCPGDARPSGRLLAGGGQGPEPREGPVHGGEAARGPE
Ras and Rab interactor 1/Tyrosine-protein kinase ABL1, sequence (P00519 whole entry): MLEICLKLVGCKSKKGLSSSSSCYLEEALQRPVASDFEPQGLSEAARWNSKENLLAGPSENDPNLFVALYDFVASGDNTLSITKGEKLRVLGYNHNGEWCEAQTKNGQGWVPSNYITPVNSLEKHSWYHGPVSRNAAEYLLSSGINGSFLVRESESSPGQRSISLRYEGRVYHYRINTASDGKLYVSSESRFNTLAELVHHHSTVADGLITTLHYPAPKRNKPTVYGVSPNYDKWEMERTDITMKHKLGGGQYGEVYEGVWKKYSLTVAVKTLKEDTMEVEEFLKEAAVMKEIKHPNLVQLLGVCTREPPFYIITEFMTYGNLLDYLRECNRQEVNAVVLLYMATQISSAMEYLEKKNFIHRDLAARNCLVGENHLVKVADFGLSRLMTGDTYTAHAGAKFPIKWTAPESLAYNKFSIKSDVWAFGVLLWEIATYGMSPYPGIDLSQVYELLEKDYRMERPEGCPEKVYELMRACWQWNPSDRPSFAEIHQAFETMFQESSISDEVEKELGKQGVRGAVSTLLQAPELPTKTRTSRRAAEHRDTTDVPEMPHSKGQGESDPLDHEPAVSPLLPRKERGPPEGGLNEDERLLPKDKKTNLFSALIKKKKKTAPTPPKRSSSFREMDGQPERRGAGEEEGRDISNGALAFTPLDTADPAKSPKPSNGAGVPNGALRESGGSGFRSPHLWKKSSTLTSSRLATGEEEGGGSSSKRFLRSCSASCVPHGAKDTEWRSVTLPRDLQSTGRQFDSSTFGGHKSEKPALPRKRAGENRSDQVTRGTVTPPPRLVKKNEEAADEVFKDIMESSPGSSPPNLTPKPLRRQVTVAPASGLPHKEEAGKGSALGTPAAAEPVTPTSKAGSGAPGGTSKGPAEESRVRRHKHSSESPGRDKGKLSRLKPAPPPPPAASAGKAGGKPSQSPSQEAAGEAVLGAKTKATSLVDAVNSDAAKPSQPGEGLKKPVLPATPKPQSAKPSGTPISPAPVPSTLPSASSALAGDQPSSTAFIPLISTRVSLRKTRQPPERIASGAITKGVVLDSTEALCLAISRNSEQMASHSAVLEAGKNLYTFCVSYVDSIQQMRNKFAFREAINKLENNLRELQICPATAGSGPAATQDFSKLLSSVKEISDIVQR
Ras and Rab interactor 1/Tyrosine-protein kinase ABL1, sequence (Q13671 whole entry): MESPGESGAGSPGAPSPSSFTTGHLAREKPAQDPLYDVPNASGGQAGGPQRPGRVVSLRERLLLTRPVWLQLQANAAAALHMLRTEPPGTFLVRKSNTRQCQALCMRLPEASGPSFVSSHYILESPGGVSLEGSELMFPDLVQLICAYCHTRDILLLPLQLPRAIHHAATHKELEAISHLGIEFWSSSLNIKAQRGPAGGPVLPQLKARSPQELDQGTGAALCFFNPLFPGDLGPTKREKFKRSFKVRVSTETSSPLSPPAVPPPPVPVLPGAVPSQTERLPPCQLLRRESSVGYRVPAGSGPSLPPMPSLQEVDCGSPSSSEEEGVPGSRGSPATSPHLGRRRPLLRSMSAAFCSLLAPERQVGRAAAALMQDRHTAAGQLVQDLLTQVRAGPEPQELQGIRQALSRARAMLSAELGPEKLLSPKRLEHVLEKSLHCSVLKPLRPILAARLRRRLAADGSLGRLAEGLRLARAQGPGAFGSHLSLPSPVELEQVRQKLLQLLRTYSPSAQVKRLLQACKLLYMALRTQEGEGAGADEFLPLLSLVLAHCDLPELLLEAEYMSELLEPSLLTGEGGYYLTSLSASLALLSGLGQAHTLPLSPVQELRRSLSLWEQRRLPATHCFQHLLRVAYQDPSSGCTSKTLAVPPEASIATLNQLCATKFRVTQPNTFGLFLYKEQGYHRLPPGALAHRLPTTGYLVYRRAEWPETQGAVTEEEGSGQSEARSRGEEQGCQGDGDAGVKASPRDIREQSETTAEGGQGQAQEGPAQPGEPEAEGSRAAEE
T1 sequence (P63165 whole entry): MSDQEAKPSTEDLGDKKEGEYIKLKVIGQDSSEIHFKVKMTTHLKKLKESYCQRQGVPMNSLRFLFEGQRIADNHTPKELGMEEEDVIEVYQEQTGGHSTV
Hepatocyte nuclear factor 4-alpha, sequence (P41235 whole entry, the tested form may be a part): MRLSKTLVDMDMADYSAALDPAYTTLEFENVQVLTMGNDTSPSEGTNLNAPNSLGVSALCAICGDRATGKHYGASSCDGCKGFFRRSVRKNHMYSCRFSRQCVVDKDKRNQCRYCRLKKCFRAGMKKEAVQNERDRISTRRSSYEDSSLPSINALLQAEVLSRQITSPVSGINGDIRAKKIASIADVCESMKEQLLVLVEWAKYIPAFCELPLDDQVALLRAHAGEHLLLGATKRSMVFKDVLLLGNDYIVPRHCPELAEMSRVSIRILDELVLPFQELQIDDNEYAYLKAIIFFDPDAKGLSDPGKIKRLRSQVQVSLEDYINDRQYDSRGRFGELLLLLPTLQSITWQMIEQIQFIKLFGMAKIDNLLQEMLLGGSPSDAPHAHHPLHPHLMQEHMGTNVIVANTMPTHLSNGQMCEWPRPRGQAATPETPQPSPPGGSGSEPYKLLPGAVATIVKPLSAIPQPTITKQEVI
DNA dC->dU-editing enzyme APOBEC-3A, sequence (P31941 whole entry): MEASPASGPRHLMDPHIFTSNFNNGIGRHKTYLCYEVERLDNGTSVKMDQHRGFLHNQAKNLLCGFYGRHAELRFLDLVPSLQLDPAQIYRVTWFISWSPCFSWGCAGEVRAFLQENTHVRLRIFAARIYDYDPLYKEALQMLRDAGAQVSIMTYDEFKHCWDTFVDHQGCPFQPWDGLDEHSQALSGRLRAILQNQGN
Paired box protein Pax-8, sequence (Q06710 whole entry): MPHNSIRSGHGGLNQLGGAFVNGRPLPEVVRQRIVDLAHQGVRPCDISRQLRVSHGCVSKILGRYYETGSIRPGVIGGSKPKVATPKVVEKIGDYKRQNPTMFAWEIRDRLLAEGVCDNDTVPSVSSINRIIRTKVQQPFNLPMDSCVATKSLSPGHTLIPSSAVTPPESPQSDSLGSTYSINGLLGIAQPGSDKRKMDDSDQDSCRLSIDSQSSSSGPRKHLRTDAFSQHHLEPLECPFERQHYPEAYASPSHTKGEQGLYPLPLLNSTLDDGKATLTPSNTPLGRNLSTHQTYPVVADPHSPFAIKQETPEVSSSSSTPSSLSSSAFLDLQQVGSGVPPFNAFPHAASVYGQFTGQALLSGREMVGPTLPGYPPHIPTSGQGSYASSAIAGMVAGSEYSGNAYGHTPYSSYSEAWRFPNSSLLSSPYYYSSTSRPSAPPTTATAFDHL
DNA dC->dU-editing enzyme APOBEC-3G, sequence (Q9HC16 whole entry): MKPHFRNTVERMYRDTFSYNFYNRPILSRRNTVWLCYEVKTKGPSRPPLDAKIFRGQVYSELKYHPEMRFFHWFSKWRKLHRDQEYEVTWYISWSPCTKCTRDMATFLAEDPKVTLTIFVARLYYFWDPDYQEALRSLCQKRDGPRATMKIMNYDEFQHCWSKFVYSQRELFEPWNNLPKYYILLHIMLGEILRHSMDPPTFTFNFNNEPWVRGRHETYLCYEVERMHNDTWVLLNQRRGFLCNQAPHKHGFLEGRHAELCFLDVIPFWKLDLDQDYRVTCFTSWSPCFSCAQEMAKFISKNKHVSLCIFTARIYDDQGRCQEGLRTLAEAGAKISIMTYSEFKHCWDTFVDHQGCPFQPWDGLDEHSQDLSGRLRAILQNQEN

## COC(=O)c1ccc(COC(=O)c2ccc(-n3cnnn3)cc2)o1
[1]
  IC50: 21.1 µM (inactive)

## CCCCCC(=O)Nc1nc(C)c(-c2csc(Nc3cc(Cl)ccc3C)n2)s1
[2]
  IC50: 10.7 µM (active)
[3]
  IC50: > 66.6 µM (inactive)

## N#Cc1cc(-c2ccccc2)oc1NC(=O)c1ccco1
Galanin receptor type 3
  IC50: 8.23 µM (active)
Cells [4]
  EC50: > 29.9 µM (inactive)

## COc1cc(C(C)=O)ccc1OCc1cn(CC(=O)c2ccc(O)cc2)nn1
[5]
  IC50: 5.85 µM (active)

## Cc1ccc(S(=O)(=O)N(C)C[C@@H]2Oc3ccc(NC(=O)Nc4ccc(C(F)(F)F)cc4)cc3CC(=O)N([C@@H](C)CO)C[C@@H]2C)cc1
Paired box protein Pax-8
  AC50: 0.799 µM (active)
[6]
  AC50: 5.91 µM (active)
[7]
  AC50: 0.483 µM (active)
[8]
  AC50: 0.584 µM (active)
[9]
  AC50: 3.88 µM (active)
[10]
  AC50: 1.16 µM (active)

## COc1ccc(OC)c(NC(=O)Cc2ccc(NC3=NC4CS(=O)(=O)CC4S3)cc2)c1 (centres undefined)
[11]
  AC50: > 380 µM (inactive)
[1]
  IC50: 14.1 µM (inactive)
Protein RecA
  EC50: > 380 µM (inactive)

## Cc1cccc(NN=C(S)Nc2c(C)cccc2C)c1
[12]
  IC50: > 122 µM (inactive)

## CCOc1cn(C)c(C(=O)Nc2ccccc2)cc1=O
[13]
  IC50: > 100 µM (inactive)
[14]
  IC50: > 100 µM (inactive)

## CCn1c(S)nnc1-c1cc2c(C(F)(F)F)nn(C)c2s1
[12]
  IC50: > 122 µM (inactive)
[15]
  IC50: 3.06 µM (active)
[16]
  IC50: > 100 µM (inactive)

## COc1ccc2cc(Br)c(=O)oc2c1
[13]
  IC50: > 100 µM (inactive)
[14]
  IC50: > 100 µM (inactive)

## COc1ccc(C=C2CCc3ccccc3C2=O)cc1
Cells [17]
  IC50: > 67.6 µM (inactive)
[18]
  IC50: > 67.6 µM (inactive)

## CC(C)(C)NC(=O)COC(=O)c1snc(C(=O)NC2CCCCC2)c1N
Galanin receptor type 3
  IC50: 1.95 µM (active)
Cells [19]
  IC50: 4.33 µM (active)
Cells [4]
  EC50: > 29.9 µM (inactive)
[20]
  CC50: > 40 µM (active)

## O=C(O)c1cnn(-c2nc(-c3ccc(Cl)c(Cl)c3)cs2)c1C(F)(F)F
[21]
  EC50: 43.4 µM (active)
[22]
  IC50: > 64.6 µM (inactive)
[23]
  IC50: 11 µM (active)
[24]
  IC50: 13.2 µM (active)
Melanocortin receptor 4
  IC50: 5 µM (active)
